Columns and labels:
[1] = In vitro drug release of mepivacaine (dialysis tube, PBS, 37° C., UV-Vis); assay type: physicochemical
Method: For the in vitro drug release, mepivacaine hydrochloride was dissolved in 1 mL of gel previously prepared to reach different mepivacaine concentration. The pH of the resulting thixotropic colloidal suspension before the addition of mepivacaine was 7.95, while after the addition of the drug changed to 7.1. The gel+mepivacaine was placed in a Pur-L-Lyzer™ dialysis tube with a molecular weight cut-off of 12000 Da, while the control group is represented by the mepivacaine dissolved in PBS (2% w/v) and placed in a dialysis tubes with the same molecular weight cut-off. The tubes were incubated in 30 mL of phosphate buffer saline solution (PBS) at 37° C., and the solution was changed at different time points comprised between 0 and 168 hours. In order to calculate the amount of drug released, the extracted solutions were analyzed with UV-Vis spectroscopy following the absorption of mepivacaine at 263 nm. All experiments were done in triplicates.

mice tibial fracture = assay: Mice tibial fracture model (guarding, weight bearing, micro-CT, three point bending); assay type: in vivo; details: three point bending test, two weeks following fracture
Method: The effects of NMP alone, NMP combined with mepivacaine and mepivacaine alone, on post-fracture mobilization, postoperative pain and bone healing were assessed in vivo using a standardized mice tibial fracture model (St-Arnaud, The Journal of steroid biochemistry and molecular biology 121, 254-256 (2010)). Thirty-two mice were randomly assigned into four groups (n=8, each); saline, mepivacaine, NMP and NMP+mepivacaine. Thirty minutes prior to surgical intervention, each mouse was injected with Carprofen (20 mg/kg; SC).
The animal was then anesthetized with isoflurane (3-5% at the induction time and 2-2.5% during the maintenance period). […] A longitudinal skin incision was made in order to expose the right patellar tendon. […]
Post-operative Animals' pain perception and locomotion were evaluated, at different time point; […], 3 days, one week and two weeks post fracture, by assessing mice guarding (Yasuda et al., Journal of pain research 6, 161 (2013)) and weight bearing per each leg, respectively. […] Guarding behavior was assessed as following; each mouse was placed individually in a clear plastic box on an elevated stainless steel mesh. […]
Weight bearing test was performed as following; an incapacitance meter (IITC.inc, CA, US) was used for determination of hind paw weight distribution. […] The weight exerted by each hind limb was measured and averaged over a period of 5 seconds. […]

Cc1cccc(C)c1NC(=O)C1CCCCN1C (stereo not drawn) [mepivacaine]
total release of drug ([1]; after 8 hours, PBS, 37° C.): 90±5%
stability of mepivacaine in contact with the gel (UV-Vis spectra) ([1]; after 24 hours from the beginning of the release experiment): molecular integrity of the drug
force to fracture, fractured versus non-fractured tibia (mice tibial fracture): significantly different

From patent US11629055B2, “Magnesium phosphate hydrogels” (INViCARE INC., priority 2015, dated 2023)
